In the assay the test system is XBP1s. Briefly: Intravitreal treatment of DKO mice, XBP1s immunostaining of RPE flat mounts. The class given is in vivo, ABCA4−/− RDH8−/− double knock-out mice (DKO). The following applies: 26 month old DKO mice, intraocular, a week later, vs mock treated eyes. The protocol:
Animals. Pigmented ABCA4^−/− RDH8^−/− double knock-out mice (DKO), free of rd8 mutation, were purchased from Jackson laboratories and every 10 generations were in house backcrossed to the C57BL6J control strain, to prevent genetic drifts. Genotyping was performed at Transnetyx (Memphis, TN). Only mice with ABCA4, RDH8, RPE65-Leu450 but no crb1 mutations (retinal degeneration slow) were maintained in the colony. Controls C57BL/6J (Rpe65-Leu450, crb1negative) were also Jackson's lab. All mice were housed at Weill Cornell Medicine's animal facility under a 12 h light (˜10 lux)/12 h dark cycle environment or under complete darkness. Experimental manipulations in the dark were done under dim red light transmitted through a Kodak No. 1 safelight filter (transmittance >560 nm). No retinal degeneration or necroptosis markers were appreciably detected in 20 months or older C57BL6/N (Rpe65-Met450, crb1 positive) obtained from the NAI/NIH. All animal procedures and experiments were approved by the Animal Care and Use Committee of Weill Cornell Medical College in agreement with the guidelines established by the NIH Office of Laboratory Animal Welfare and the Association of Research for Vision and Ophthalmology (ARVO) statement for the use of animals in ophthalmic research. […]
Pharmacological treatment of mice. […] The exact volume of Mock reagent or Kira6 was determined by 10 μl Hamilton syringe. […]

For the compound `CC(C)(C)c1nc(-c2ccc(NC(=O)Nc3cccc(C(F)(F)F)c3)c3ccccc23)c2c(N)nccn12` [KIRA6], the “XBP1s staining of whole RPE flat mounts” value is “decreased from the center to the periphery”.

These data come from patent US20240082221A1, “COMPOSITIONS AND METHODS FOR THE IDENTIFICATION OF COMPOUNDS THAT PROTECT AGAINST LIPOFUSCIN CYTOTOXICITY” (priority 2021, published 2024).
